A short description of one data set: in vitro. The conditions noted are these: mouse, Melan-a cells.
A further data set in a line: cells. The following applies: Mus musculus, Melan-a, 96 h.
Data set [1] concerns the target T1, Tyrosinase (Agaricus bisporus, UniProt O42713).
T1 sequence (O42713 whole entry): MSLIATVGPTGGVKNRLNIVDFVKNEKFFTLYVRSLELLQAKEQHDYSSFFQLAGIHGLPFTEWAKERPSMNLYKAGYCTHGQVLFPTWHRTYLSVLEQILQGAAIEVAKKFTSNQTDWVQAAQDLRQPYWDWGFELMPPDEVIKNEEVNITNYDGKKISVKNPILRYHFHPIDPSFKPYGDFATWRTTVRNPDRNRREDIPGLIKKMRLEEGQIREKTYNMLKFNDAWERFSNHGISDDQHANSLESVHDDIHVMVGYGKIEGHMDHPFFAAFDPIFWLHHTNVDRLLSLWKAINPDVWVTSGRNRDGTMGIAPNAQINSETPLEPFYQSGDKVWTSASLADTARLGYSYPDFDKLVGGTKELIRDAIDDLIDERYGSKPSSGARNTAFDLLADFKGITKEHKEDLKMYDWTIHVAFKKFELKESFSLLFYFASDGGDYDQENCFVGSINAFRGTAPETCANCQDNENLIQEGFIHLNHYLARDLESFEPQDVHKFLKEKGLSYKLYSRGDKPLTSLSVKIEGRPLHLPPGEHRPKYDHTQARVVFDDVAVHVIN
Description: Inhibition of mushroom tyrosinase using L-tyrosine as substrate after 20 mins by spectrophotometry

Data set [2] has as its target T1, Tyrosinase. Nature of the data set: Inhibition of mushroom tyrosinase using L-DOPA as substrate after 20 mins by spectrophotometry.

Results on 13 compounds are retold here after ChEMBL document CHEMBL2029205 (Bioorg Med Chem Lett, 2012).

SMILES strings stand for the structures. pIC50: −log10 of the molar value.

Description for cells: Cytotoxicity against mouse Melan-a cells after 4 days by crystal voilet method
Description for in vitro: Ratio of IC50 for cytotoxicity against mouse Melan-a cells to IC50 for depigmentation in mouse Melan-a cells

`COc1ccc(C(=O)OCc2cc(=O)c(OC)co2)cc1C12CC3CC(CC(C3)C1)C2`: the selectivity ratio in “in vitro” worked out at 6.54. In “cells”, the pIC50 is 4.50.
For the compound `COc1ccc(C(=O)OCc2cc(=O)c(O)co2)cc1C12CC3CC(CC(C3)C1)C2`, in “in vitro”, the selectivity ratio was 5.55. Besides, the pIC50 is 4.72 in the data set “cells”, < 3.70 at Tyrosinase [1] and < 3.70 against Tyrosinase [2].
For the compound `O=C(OCc1cc(=O)c(O)co1)c1ccc(O)cc1O`, the pIC50 in the data set “cells” is < 4.10; against Tyrosinase [1], 5.45; against Tyrosinase [2] it was 5.44.
On to `COc1coc(COC(=O)c2ccc(O)c(C34CC5CC(CC(C5)C3)C4)c2)cc1=O`, for which, in “in vitro”, the selectivity ratio is 6.16. Also, the negative-log IC50 (pIC50) in the data set “cells” was 4.62.
For `O=C(OCc1cc(=O)c(O)co1)c1ccc(O)c(C23CC4CC(CC(C4)C2)C3)c1`, the selectivity ratio in the data set “in vitro” came to 7.25. Also, the pIC50 in the data set “cells” is 4.56; on Tyrosinase [1] it was < 3.70; against Tyrosinase [2] it was < 3.70.
Regarding `COc1ccc(C(=O)OCc2cc(=O)c(O)co2)c(OC)c1`, the pIC50 is < 4.10 in the data set “cells”, 5.49 against Tyrosinase [1] and 5.32 against Tyrosinase [2].
Consider `O=C(OCc1cc(=O)c(O)co1)c1cc(C23CC4CC(CC(C4)C2)C3)c(O)cc1O`, for which the selectivity ratio in the data set “in vitro” stood at 3.41. For the same compound, the pIC50 is 4.56 in “cells”, < 3.70 against Tyrosinase [1] and < 3.70 against Tyrosinase [2].
As to `COc1cc(OC)c(C23CC4CC(CC(C4)C2)C3)cc1C(=O)OCc1cc(=O)c(O)co1`, the selectivity ratio in the data set “in vitro” is 4.39. For the same compound, the pIC50 in “cells” was 4.75; on Tyrosinase [1], < 3.70; at Tyrosinase [2], < 3.70.
Consider `COc1cc(O)c(C(=O)OCc2cc(=O)c(O)co2)cc1C12CC3CC(CC(C3)C1)C2`, for which the selectivity ratio in “in vitro” is 3. In addition, the pIC50 in the data set “cells” was 4.57; against Tyrosinase [1] it was < 3.70; against Tyrosinase [2] it was < 3.70.
With `COc1ccc(C(=O)OCc2cc(=O)c(O)co2)c(O)c1`, the figures for the pIC50 in the data set “cells”, on Tyrosinase [1] and against Tyrosinase [2] were < 4.10, 4.97 and 4.70, respectively.
Take `O=C(OCc1cc(=O)c(O)co1)c1ccc(O)cc1`: the figures for the pIC50 in the data set “cells”, against Tyrosinase [1] and against Tyrosinase [2] were < 4.10, 5.55 and 5.74, respectively.
`Oc1ccc(O)cc1` [HYDROQUINONE]: the selectivity ratio in “in vitro” was 3.56. Besides, the pIC50 was 4.82 in the data set “cells” and 5.00 on Tyrosinase [1].
As to `COc1ccc(C(=O)OCc2cc(=O)c(O)co2)cc1`, the pIC50 in “cells” was < 4.10; on Tyrosinase [1] it was 5.69; against Tyrosinase [2] it was 5.69.

As a reminder, the pIC50 is the IC50 on a negative log10 scale, so that one unit is a factor of ten.
